In US20150374705A1, “Substances for treatment or relief of pain” (Shanghai Institues for Biological Sciences, priority 2012, published 2015):

Assays:
Assay type in all cases: in vivo
[1] = tested on: CFA induced inflammatory pain model rats (mechanical pain); experiment: CFA induced inflammatory pain model, mechanical pain threshold; conditions: rat, spinal injection the day before CFA, measured every day
[2] = tested on: α5 subunit protein of GABAA receptor in dorsal root ganglion; experiment: Knock-down of α5 subunit of GABAA receptor in dorsal root ganglion, western blot; conditions: rat, intrathecal injection
Method: In western blot experiment, obtained dorsal root ganglion was lysed in RIPA (50 mM Tris (pH7.4), 150 mM NaCl, 1% Triton X-100, 1% sodium deoxycholate, 0.1% SDS as well as sodium orthovanadate, sodium fluoride, EDTA and leupeptin. The proteins were boiled at 100° C. for 5 minutes for denaturation. 10-20 μl samples were added into the prepared channels after the protein samples became cool. Then, electrophoresis was conducted at 60 V for 30 minutes. After the samples passed the boundary between the upper layer gel and the lower layer gel, the voltage was adjusted to 90 V until bromophenol blue reached the lower edge of the lower layer gel. After electrophoresis, the SDS gel that contained target bands was cut for transferring. Through electric transferring, the negative charged proteins were transferred to positive charged PVDF membrane. The blocking buffer that contained 5% skim milk powder was used to block the membrane for 1 hour to reduce unspecific binding. Then, the PVDF membrane was immersed in the blocking buffer containing primary antibody and incubated overnight at 4° C. or 1-2 hours at room temperature. […] Finally, PVDF membrane was incubated with the substrate of horse radish peroxidase ECL-PLUS for 5 minutes in dark to produce fluorescence signal. Then X-ray film was used to capture the fluorescence signal on PVDF membrane. […]

[3] = tested on: CFA induced inflammatory pain model rats (heat pain); experiment: CFA induced inflammatory pain model, heat pain threshold; conditions: rat, spinal injection the day before CFA, measured every day
[4] = tested on: SNI model rats (neuropathic pain); experiment: Spared nerve injury (SNI) model, neuropathic pain, mechanical pain threshold; conditions: rat, intrathecal injection 7 days after SNI, threshold at 9-17 days
Method: Male SD rats (200-250 g) were used, 6 per group in the cage. All the animals were placed under 12 hours light/cycle (i.e. 12 hours light and 12 hours dark in each day), free to food and water. All the experiments were conducted under the condition that the observers were blind to pharmaceutical treatment.
Spared nerve injury model (SNI): 10% chloral hydrate was injected intraperitoneally to anesthetize rats. […] The muscle was longitudinally separated to expose the core of sciatic nerve and the branching below: tibial nerve, common peroneal nerve and sural nerve. The tibial nerve and common peroneal nerve were ligatured and cut and small sural nerve was retained, meanwhile preventing any injury. The muscle and skin were sutured layer by layer, and then antibiotics were injected intraperitoneally for antibacterial purpose. For detailed methods, please refer to Decosterd I and Woolf C J. Spared nerve injury: an animal model of persistent peripheral neuropathic pain. 2000 August; Pain 87(2):149-58.
Method for detecting mechanical hyperalgesia in rats: firstly CFA solution was injected in the thenar of rats. After 24 hours, mechanical hyperalgesia quantitative detection was adopted to measure the paw withdrawal of rats to normal and harmless mechanical stimulation. Evaluation was conducted according to reference (Chaplan S R et al., Quantitative assessment of tactile allodynia in the rat paw. J Neurosci Methods. 1994 July; 53(1):55-63). In this method, the von Frey fibers with different bending force (equivalent to the range of 1-50 g force) were used to apply harmless mechanical stimulation. The rats were placed in organic glass box with metal mesh plate, and the von Frey fibers were applied on the surface of leg thenar. The von Frey fibers were applied vertically to the surface of thenar to generate the force that will trigger slight resistance to the leg. 2-3 seconds were maintained for every leg thenar. If the leg withdrew suddenly, positive records were recorded. The threshold was the mean of the weight that caused 50% paw withdrawal response (5-6 paw withdrawal/10 stimulations) in overall 10 stimulations.
Compounds MRK 016, C2, C3, C4, C5, C6, C7, C8 or α5IA (A5I) were dissolved in 70% PGE400 (PGE400:water=70:30 in volume). For injection dose, MRK016 was 2 mg/kg body weight; A5I was 3 mg/kg body weight; C2, C3, C4, C5, C6, C7 and C8 were 3 mg/kg body weight.
MRK016-M3 was dissolved in 90% PGE400 (PGE400:water=90:10 in volume). The doses were 10 mg/kg, 3 mg/kg, 1 mg/kg and 0.3 mg/kg, respectively for oral administration.
The method for behavioral data statistics was unpaired t-test. *, p<0.05, represents significant difference.

## siRNA specific to the mRNA of α5-GABAA receptor: siRNA, sequence 5′GGUGCGAACAGACAUCUAUTT 3′ (chemistry not given here)
[1]
  Mechanical pain threshold after siRNA: inhibit the inflammatory pain efficiently
[2]
  Expression of the α5 subunit of GABAA receptor in dorsal root ganglion: significantly knocked-out the expression
[3]
  Heat pain threshold after siRNA: inhibit the inflammatory pain efficiently
[4]
  Pain threshold in SNI model after siRNA: significantly elevated pain threshold
